Experiments:
[1] = system: human cervix cell line (HeLa); test: In vitro cell proliferation assay (SRB), HeLa; format: cell-based; conditions: 72 h, mean ± S.D.
Protocol: (§1) The cell proliferation assay was performed in 96-well plates as described previously. A panel of four cancer cell lines of different tissues of origins, namely: human lung adenocarcinoma epithelial cell line (A549), human lymphoblast cell line (CEM), human cervix cell line (HeLa) and human breast epithelial cell line (MCF-7) were studied. These cell lines were obtained from the National Repository of Animal Cell Culture, National Centre for Cell Sciences, Pune (NCCS), India. Briefly, 2 x10^3 cells were seeded in each well and were incubated with gradient concentrations of 5a, 6a-j compounds for 72 h. The cells were then fixed with 50% trichloroacetic acid and stained with 0.4% sulforhodamine B (SRB) dissolved in 1% acetic acid. Cells were then washed with1% acetic acid to remove excess (unbound) SRB. The protein-bound SRB was dissolved with 10 mM Tris base and the absorbance at 564 nm was determined using a SPECTRAmax PLUS 384 microplate spectrophotometer.

[2] = system: human lung adenocarcinoma epithelial cell line (A549); test: In vitro cell proliferation assay (SRB), A549; format: cell-based; conditions: 72 h, mean ± S.D.
Protocol: as §1

MCF-7 cells = test: Cell cycle analysis by flow cytometry (propidium iodide); format: cell-based, human; conditions: MCF-7, 25 µM
Protocol: The flow cytometric evaluation of the cell cycle status was performed as described previously. Briefly, cells (2 x 10^6) treated with the noscapinoids up to 72 h were centrifuged, washed twice with cold PBS, and fixed in 70% ethanol. Tubes containing the cell pellets were stored at 4 °C for minimum of 24 h. Cells were then centrifuged at 1000 x g for 10 min and the supernatant was discarded. The pellets were washed twice with 5 ml of PBS and then stained with 0.5 ml of propidium iodide (0.1% of Pl + 0.6% Triton-X in PBS) and 0.5 ml of RNase A (2 mg/ml) for 45 minutes in dark. Samples were then analyzed on a FACS Calibur flow cytometer ([…]).

[3] = system: human lymphoblast cell line (CEM); test: In vitro cell proliferation assay (SRB), CEM; format: cell-based; conditions: 72 h, mean ± S.D.
Protocol: as §1

[4] = system: human breast epithelial cell line (MCF-7); test: In vitro cell proliferation assay (SRB), MCF-7; format: cell-based; conditions: MCF7, 72 h, mean ± S.D.
Protocol: as §1

tubulin = molecular target: T1, tubulin (Bos taurus, UniProt P81947+Q6B856); test: Tubulin binding assay (quenching of intrinsic tryptophan fluorescence); design: species or system bovine
T1 construct: Tubulin devoid of microtubule-associated proteins (MAPs) was purified from bovine brain; from tissue; host or cells: bovine brain
T1 sequence (Q6B856 whole entry): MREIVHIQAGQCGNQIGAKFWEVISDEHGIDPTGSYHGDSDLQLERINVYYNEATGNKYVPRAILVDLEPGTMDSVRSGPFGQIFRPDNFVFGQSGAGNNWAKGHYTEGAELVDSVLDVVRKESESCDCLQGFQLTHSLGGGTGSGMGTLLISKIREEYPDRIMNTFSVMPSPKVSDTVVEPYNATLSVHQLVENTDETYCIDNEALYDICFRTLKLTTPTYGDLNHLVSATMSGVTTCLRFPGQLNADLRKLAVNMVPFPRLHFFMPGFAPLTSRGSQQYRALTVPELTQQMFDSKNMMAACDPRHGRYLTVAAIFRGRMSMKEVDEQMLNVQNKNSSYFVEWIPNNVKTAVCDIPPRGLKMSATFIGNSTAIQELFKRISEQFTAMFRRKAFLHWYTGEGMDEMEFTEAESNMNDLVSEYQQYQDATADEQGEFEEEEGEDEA
T1 sequence (P81947 whole entry): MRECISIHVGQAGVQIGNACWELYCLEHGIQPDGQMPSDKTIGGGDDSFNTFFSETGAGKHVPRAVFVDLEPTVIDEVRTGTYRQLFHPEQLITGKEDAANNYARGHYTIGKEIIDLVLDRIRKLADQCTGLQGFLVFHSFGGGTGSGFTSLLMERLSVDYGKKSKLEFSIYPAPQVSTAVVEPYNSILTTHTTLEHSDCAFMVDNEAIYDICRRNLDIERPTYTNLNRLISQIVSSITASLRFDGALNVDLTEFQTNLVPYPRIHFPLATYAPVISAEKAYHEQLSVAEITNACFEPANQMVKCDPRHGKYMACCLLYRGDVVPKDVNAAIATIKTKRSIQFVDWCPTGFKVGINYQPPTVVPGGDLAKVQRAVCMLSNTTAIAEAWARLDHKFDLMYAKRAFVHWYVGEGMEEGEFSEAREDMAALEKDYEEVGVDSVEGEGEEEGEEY
Protocol: Tubulin devoid of microtubule-associated proteins (MAPs) was purified from bovine brain by cycles of temperature-dependent polymerization and depolymerization as described previously followed by phosphocellulose chromatography. The concentration of the tubulin was determined by the method of Bradford using BSA as the standard. Purified tubulin was quickly frozen as drops in liquid nitrogen and stored at - 80 °C until used.
Noscapinoids quench the […] intrinsic tryptophan fluorescence of tubulin in a concentration-dependent fashion as described previously. This has allowed an easy method for measuring the tubulin-noscapinoids interactions. Briefly, the compounds 5a, 6a-j (0-200 µM) were incubated with 2 µM tubulin in PEM buffer (100 mM PIPES, pH 6.8, 3 mM MgSO4, and 1 mM EGTA) at 37 °C for 45 min. After incubation, the samples were excited at 295 nm. The relative intrinsic fluorescence intensity of the tubulin was then monitored in the absence and presence of the compound 5a, 6a-j using a Varian Cary Eclipse Fluorescence Spectrophotometer (Agilent Technologies, CA, USA). The emission readings were recorded at 335 nm. We used a 0.3 cm path-length cuvette to minimize the inner filter effects caused by the absorbance of the noscapinoids. In addition, the inner filter effects were corrected using a formula F corrected = F observed·antilog [(A ex + A em)/2], where A ex is the absorbance at the excitation wavelength and A em is the absorbance at the emission wavelength. The equilibrium dissociation constant (KD) was determined by the formula: 1/a = KD/[free ligand] + 1, where a is the fractional occupancy and [free ligand] is the concentration of free ligand. The fractional occupancy (a) was determined by the formula a = ΔF/ΔF max, where ΔF is the change in fluorescence intensity when tubulin and its ligand are in equilibrium and ΔF max is the value of maximum fluorescence change when tubulin is completely bound with its ligand. ΔF max was calculated by plotting 1/ΔF versus 1/ligand, using total ligand concentration as the first estimate of free ligand concentration. Three independent experiments were performed for each noscapinoid.

| SMILES | IC50 [1] [µM] | IC50 [2] [µM] | Cell cycle parameters % G0/G1, 24 hours (MCF-7 cells) [%] | Cell cycle parameters % G2/M, 24 hours (MCF-7 cells) [%] | Cell cycle parameters % S, 24 hours (MCF-7 cells) [%] | Cell cycle parameters % Sub-G1, 24 hours (MCF-7 cells) [%] | Cell cycle parameters % G0/G1, 72 hours (MCF-7 cells) [%] | Cell cycle parameters % G2/M, 72 hours (MCF-7 cells) [%] | Cell cycle parameters % S, 72 hours (MCF-7 cells) [%] | Cell cycle parameters % Sub-G1, 72 hours (MCF-7 cells) [%] | IC50 [3] [µM] | IC50 [4] [µM] | melting point [°C] | Kd (tubulin; 2 µM tubulin, PEM buffer pH 6.8, 37 °C, 45 min, mean ± S.D.) [µM] | Experimental ΔGbind (tubulin; calculated from KD, ΔGbind = RT ln KD, T = 298 K) [kcal/mol] |
| --- | --- | --- | --- | --- | --- | --- | --- | --- | --- | --- | --- | --- | --- | --- | --- |
| COc1cccc(CN2CCc3cc4c(c(OC)c3[C@@H]2[C@H]2OC(=O)c3c2ccc(OC)c3OC)OCO4)c1 [Compound 6g, (S)-6,7-dimethoxy-3-((R)-4-methoxy-6-(3-methoxybenzyl)-5,6,7,8-tetrahydro-[1,3]dioxolo[4,5-g]isoquinolin-5-yl) isobenzofuran-1(3H)-one] | 28.3 ± 2.1 | 61.3 ± 3.1 | 20.94 | 62.28 | 4.08 | 10.86 | 12.76 | 37.93 | 8.07 | 40.29 | 11.9 ± 0.8 | 45.8 ± 2.2 | 60 | – | – |
| COc1ccc2c(c1OC)C(=O)O[C@@H]2[C@H]1c2c(cc3c(c2OC)OCO3)CCN1Cc1cccc(Cl)c1 [Compound 6e, (S)-3-((R)-6-(3-chlorobenzyl)-4-methoxy-5,6,7,8-tetrahydro-[1,3]dioxolo[4,5-g]isoquinolin-5-yl)-6,7-dimethoxyisobenzofuran-1(3H)-one] | 17.3 ± 0.7 | 32.1 ± 1.6 | 12.84 | 68.42 | 4.57 | 8.17 | 7.02 | 38.52 | 6.83 | 45.42 | 7.5 ± 0.6 | 27.8 ± 1.3 | 62 | – | – |
| COc1ccc(CN2CCc3cc4c(c(OC)c3[C@@H]2[C@H]2OC(=O)c3c2ccc(OC)c3OC)OCO4)cc1 [Compound 6d, (S)-6,7-dimethoxy-3-((R)-4-methoxy-6-(4-methoxybenzyl)-5,6,7,8-tetrahydro[1,3]dioxolo[4,5-g]isoquinolin-5-yl)isobenzofuran-1(3H)-one] | 17.9 ± 0.9 | 33.5 ± 1.7 | 22.73 | 59.41 | 4.62 | 7.27 | 8.29 | 36.18 | 7.83 | 45.38 | 7.7 ± 0.3 | 28.7 ± 0.8 | 66 | – | – |
| COc1ccc2c(c1OC)C(=O)O[C@@H]2[C@@H]1NCCc2cc3c(c(OC)c21)OCO3 [Compound 5a, (S)-6,7-dimethoxy-3-((R)-4-methoxy-5,6,7,8-tetrahydro[1,3]dioxolo[4,5-g]isoquinolin-5-yl)isobenzofuran-1(3H)-one] | 20.9 ± 1.8 | 41.6 ± 2.1 | 13.47 | 66.37 | 4.08 | 8.46 | 10.74 | 39.25 | 7.08 | 41.57 | 8.9 ± 0.6 | 33.6 ± 1.3 | – | 68 ± 0.7 | -5.691 |
| COc1ccc2c(c1OC)C(=O)O[C@@H]2[C@H]1c2c(cc3c(c2OC)OCO3)CCN1CC(C)=O [Compound 6h, (S)-6,7-dimethoxy-3-((R)-4-methoxy-6-(2-oxopropyl)-5,6,7,8-tetrahydro-[1,3]dioxolo[4,5-g]isoquinolin-5-yl) isobenzofuran-1(3H)-one] | 15.8 ± 0.5 | 28 ± 1.5 | 12.25 | 68.58 | 5.92 | 11.37 | 7.19 | 36.18 | 6.28 | 48.73 | 6.9 ± 0.5 | 25.3 ± 1.2 | 179 | – | – |
| COc1ccc2c(c1OC)C(=O)O[C@@H]2[C@H]1c2c(cc3c(c2OC)OCO3)CCN1Cc1ccccc1 [Compound 6a, (S)-3-((R)-6-benzyl-4-methoxy-5,6,7,8-tetrahydro-[1,3]dioxolo[4,5-g]isoquinolin-5-yl)-6,7-dimethoxyisobenzofuran-1(3H)-one] | 19.4 ± 1.4 | 37.7 ± 1.8 | 16.28 | 63.18 | 4.94 | 8.12 | 9.06 | 37.72 | 7.39 | 44.82 | 8.3 ± 0.4 | 31.2 ± 1.5 | 64 | – | – |
| COc1ccc2c(c1OC)C(=O)O[C@@H]2[C@H]1c2c(cc3c(c2OC)OCO3)CCN1Cc1ccc(Br)cc1 [Compound 6b, 5(S)-3-((R)-6-(4-bromobenzyl)-4-methoxy-5,6,7,8-tetrahydro-[1,3]dioxolo[4,5-g]isoquinolin-5-yl)-6,7-dimethoxyisobenzofuran-1(3H)-one] | 21.2 ± 2.1 | 42.4 ± 2.3 | 19.42 | 64.42 | 4.16 | 7.37 | 11.38 | 35.84 | 7.53 | 43.18 | 9 ± 0.4 | 34.1 ± 1.6 | 76 | – | – |
